Assays:
[1] = test system: A2B5+ OL precursor cells; experiment: Cell proliferation (BrdU incorporation) in OL precursor cultures; type: cell-based, rat; conditions: topiramate 30 μM, NBQX 100 μM; 24 hours, BrdU last 2 hours
Protocol: Primary oligodendrocyte precursor cells were isolated from mixed glial cultures of the forebrains of newborn Sprague-Dawley rats using a selective detachment procedure as described in detail elsewhere (McCarthy and de Vellis, 1980; Back et al., 1998), and further purified by differential adhesion (Back et al., 1998). Precursor cells were maintained in a chemically-defined medium (CDM) supplemented with recombinant human platelet derived growth factor-AA (PDGF, 10 ng/ml) and basic fibroblast growth factor (bFGF, 10 ng/ml). […]
Cell proliferation was measured by determining the incorporation of the thymidine analog 5-bromo-2′-deoxyuridine (BrdU, […]) into replicating DNA of cells during the last 2 hr of the experiment. […] After the cells were incubated in a solution containing 2% BSA and 0.2% Triton X-100 for 30 min, BrdU incorporation was detected employing a murine monoclonal anti-BrdU antibody (Chemicon) and FITC-conjugated goat anti-mouse IgG. Quantitative analysis was performed by determining the percent of BrdU^+ cells in the A2B5^+ population. […] All assays were performed in triplicate and at least 1000 cells counted for each data point.
The proliferative capability of the cells was measured by the incorporation of the thymidine analog BrdU into DNA. […] A quantitative analysis was obtained by counting the number of BrdU^+ cells in the A2B5^+ population and calculating a percent. […]

[2] = test system: AMPA receptors in cerebral white matter; experiment: Intracerebral AMPA injection white matter injury; type: in vivo; conditions: P7 rats, 5 nmol AMPA plus 5 nmol MK-801, systemic NBQX post-treatment, t test p<0.005
Protocol: The methods used in this example are described in Follett et al. (2000) J. Neurosci. 20:9235-9241, incorporated by reference herein.
NBQX attenuation of the selective white matter injury after hypoxia/ischemia implicated GluR-mediated toxicity as an important mechanism of injury in immature OLs. To confirm a relationship between the activation of AMPA receptors in cerebral white matter and the vulnerability to injury, AMPA was injected directly into immature white matter. […] Minimal to no injury was present in vehicle-injected controls (M K801 alone; n=7) at the same age (t test, p<0.001).
To determine whether AMPA toxicity was age dependent, lesion size after intracerebral AMPA injections at P4, P7, and P11 was compared.

## CC1(C)O[C@@H]2[C@@H](CO[C@@]3(COS(N)(=O)=O)OC(C)(C)O[C@@H]23)O1 [topiramate]
[1]
  rate of BrdU incorporation (% BrdU+/A2B5+): Neither topiramate or NBQX altered the rate of BrdU incorporation

## NS(=O)(=O)c1cccc2c1c([N+](=O)[O-])cc1nc(O)c(O)nc12 [NBQX, 2,3-Dioxo-6-nitro-1,2,3,4-tetrahydrobenzo[f]quinoxaline-7-sulphonamide]
[1]
  rate of BrdU incorporation (% BrdU+/A2B5+): Neither topiramate or NBQX altered the rate of BrdU incorporation
[2]
  white matter injury (lesion size) after intracerebral AMPA: significantly attenuated white matter injury
